Reference: patent US5376679A, “Bicyclic or tricyclic biocidal compounds” (Shell Internationale Research Maatschappij B.V., priority 1988, dated 1994)
In brackets after ≈: the same amount, converted by molar mass.

Experiments:
Format in all cases: in vivo
Plasmopara viticola [1] = experiment: Translaminar protectant test, vine downy mildew (Pvt); conditions: secondary screening
Source text: The fungicidal activity of certain of the compounds was investigated further, in secondary screening.

Alternaria Solani = experiment: Direct protectant activity against tomato early blight (As); design: As: activity against tomato early blight: scale not given here; conditions: for As: activity against tomato early blight: foliar spray as under (a), 8 days, activity grade 1 or 2, not defined; as to As: activity against tomato early blight: dose 1000 g/ha
Procedure: (g) Activity Against Tomato Early Blight (Alternaria Solani; As). The test is a direct protectant one using a foliar spray. The upper surfaces of leaves of young tomato plants are sprayed with a solution of active material as described in (a) above. After 24 hours under normal glasshouse conditions, the upper surfaces of the leaves are inoculated by spraying with an aqueous suspension containing 10^4 spores/ml. The inoculated plants are kept for 72 hours in a high humidity compartment and are then removed to lower humidity (50-70% relative humidity). Assessment is made 8 days after inoculation.

Leptosphaeria nodorum = experiment: Direct antisporulant activity against wheat leafspot (Ln); design: scale not given here; conditions: foliar spray, 1 kg/ha; activity grade 1 or 2, not defined
In short: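 Single-leaf wheat plants were spray-inoculated with 8×10^5 spores/ml and held 24 h at high humidity before foliar spray treatment. Plants were then kept 5 days in the glasshouse. Read-out is the percentage of leaf area sporulating, relative to untreated controls.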

Plasmopara viticola [2] = experiment: Direct protectant activity against vine downy mildew (Pvp); design: Pvp: direct protectant activity against vine downy mildew: scale not given here; conditions: foliar spray, 1 kg/ha; activity grade 1 or 2, not defined
In short: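 Lower leaf surfaces of whole vine plants (cv Cabernet Sauvignon) were sprayed at 1 kg/ha in water/acetone with surfactant, then inoculated 24 h later with 10^4 zoosporangia/ml. Scored as % leaf area with sporulation versus control leaves.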

Puccinia Recondita = experiment: Direct protectant activity against wheat brown rust (Pr); design: scale not given here; conditions: foliar spray, 1 kg/ha, 10 days; activity grade 1 or 2, not defined
Procedure: (i) Activity Against Wheat Brown Rust (Puccinia Recondita; Pr) The test is a direct protectant one using a foliar spray. […] The plants are then sprayed with the test compound at a dosage of 1 kg/ha using a track sprayer as described under (a). Test compounds are applied as solutions or suspensions in a mixture of acetone and water (50:50 v/v) containing 0.04% surfactant ("TWEEN 20"--Trade Mark). 18-24 hours after treatment, the seedlings are inoculated by spraying the plants from all sides with an aqueous spore suspension containing about 10^5 spores/ml. For 18 hours after inoculation, the plants are kept in high humidity conditions at a temperature of 20°-22° C. Thereafter, the plants are kept in ambient glasshouse conditions, that is, in moderate relative humidity and at a temperature of 20° C. The disease is assessed 10 days after inoculation on the basis of the percentage of the plant covered by sporulating pustules compared with that on the control plants.

Botrytis cinerea = experiment: Direct protectant activity against vine grey mould (Bcp); conditions: for Bcp: direct protectant activity against vine grey mould: foliar spray, 1 kg/ha, activity grade 1 or 2, not defined
Source text: (b) Direct Protectant Activity Against Vine Grey Mould (Botrytis cinerea; Bcp) The test is a direct protectant one using a foliar spray and is effected as described under (a), with the difference that the leaves are inoculated by spraying with an aqueous solution containing 10^5 conidia/ml.

Plasmopara viticola [3] = experiment: Antisporulant activity against vine downy mildew (Pva); conditions: foliar spray, 1 kg/ha; activity grade 1 or 2, not defined
Procedure: (j) Antisporulant Activity Against Vine Downy Mildew (Plasmopara viticola; Pva)
The test is a direct antisporulant one using a foliar spray. The lower surfaces of leaves of whole vine plants (cv Cabernet Sauvignon) are inoculated by spraying with an aqueous suspension containing 10^4 zoosporangia/ml 2 days prior to treatment with the test compound. The inoculated plants are kept for 24 hours in a high humidity compartment, and then 24 hours at glasshouse ambient temperature and humidity. When the plants are dry, infected leaves are sprayed on their lower surfaces with a solution of active material in 1:1 water/acetone containing 0.04% w/w "Triton X-155" (trade mark) (an octylphenol polyethoxylate surfactant). The spraying is carried out with a moving track sprayer with delivers 620 liter/ha, and the concentration of active material is calculated to give an application rate of 1 kg/ha. After spraying, the plants are returned to normal glasshouse conditions for 96 hours and are then transferred to the high humidity compartment for 24 hours to induce sporulation, prior to assessment. Assessment is visual and is based on the percentage of the leaf area covered by sporulation compared with that on control leaves.

[4] = tested on: Erysiphe graminis f.sp. hordei; experiment: Direct antisporulant activity against barley powdery mildew (Eg); design: scale not given here; conditions: foliar spray, 1 kg/ha; activity grade 1 or 2, not defined
In short: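 Barley seedlings (cv. Golden Promise) were dusted with conidia one day before a foliar spray of compound. Plants were then held at ambient glasshouse conditions for up to 7 days. Sporulating leaf area (%) was scored against untreated control plants.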

[5] = tested on: rice root nematode Meloidogyne graminicola; experiment: Nematicidal soil drench test (root knots in grain sorghum); conditions: knots in roots of grain sorghum S. bicolor
Procedure: (§1) The nematicidal activity of the compounds of Example 17 and 23 was investigated. They were tested against the rice root nematode Meloidogyne graminicola in a water screen whereby the effect of retaining the nematodes in a dilute aqueous solution of the compounds was studied, and in a soil drench test in which the propensity of these nematodes to cause knots in the roots of grain sorghum S. bicolor was studied as a function of concentration of the compounds applied to the soil. […] Thus in the water screen test it was determined that the minimum inhibitory concentration of the compound of Example 23 was 0.53 ppm.

[6] = tested on: rice root nematode Meloidogyne graminicola; experiment: Nematicidal water screen; conditions: for activity against the nematodes, water screen: nematodes retained in dilute aqueous solution
Procedure: as §1

Structure (SMILES)	As: activity against tomato early blight (Alternaria Solani)	Ln: activity against wheat leafspot (Leptosphaeria nodorum)	Pvp: direct protectant activity against vine downy mildew (Plasmopara viticola [2])	Pr: activity against wheat brown rust (Puccinia Recondita)	Other: Pva, antisporulant activity against vine downy mildew (Plasmopara viticola [3])	Eg: activity against barley powdery mildew [4]	further results
N#CN=[N+]([O-])c1ccc2oc(=O)ccc2c1 [Example 1]	2	1	2	2	–	–	activity against Pvt (Plasmopara viticola [1]): high activity; activity against As (Alternaria Solani; secondary screening): high activity; Bcp: direct protectant activity against vine grey mould (Botrytis cinerea): 1
CC1(C)Cc2cc(Cl)cc([N+]([O-])=NC#N)c2O1 [Example 4]	–	1	2	2	–	–	–
CC1Oc2c(cc(Cl)cc2[N+]([O-])=NC#N)C1C (stereo not shown) [Example 5]	–	1	2	2	2	1	–
CC1Cc2cc(Cl)cc([N+]([O-])=NC#N)c2O1 (stereo not shown) [Example 6]	1	1	2	2	–	–	–
CC1Oc2c(cccc2[N+]([O-])=NC#N)C1C (stereo not shown) [Example 9]	–	1	–	–	1	1	–
N#CN=[N+]([O-])c1cc(Cl)cc2c1OC(CCl)C2 (stereo not shown) [Example 10]	–	1	2	2	–	–	–
N#CN=[N+]([O-])c1cc(Cl)cc2c1OC(CO)C2 (stereo not shown) [Example 11]	–	–	2	1	–	–	–
Cc1cc2cccc([N+]([O-])=NC#N)c2o1 [Example 16]	2	–	2	1	–	–	activity against Pvt (Plasmopara viticola [1]): high activity; Bcp: direct protectant activity against vine grey mould (Botrytis cinerea): 2; activity against Bcp (Botrytis cinerea; secondary screening): high activity
N#CN=[N+]([O-])c1cccc2c3c(oc12)CCCC3 [Example 17]	1	1	2	1	–	–	activity against the nematodes, soil drench test [5]: activity against the nematodes; activity against the nematodes, water screen [6]: activity against the nematodes
Cc1oc2c([N+]([O-])=NC#N)cccc2c1C [Example 18]	2	–	2	2	–	1	–
Cc1cc2cc([N+]([O-])=NC#N)ccc2o1 [Example 23]	1	–	–	2	2	1	activity against the nematodes, soil drench test [5]: activity against the nematodes; MIC ([6]; Meloidogyne graminicola, water screen, read-out: minimum inhibitory concentration, water screen): 0.53 µg/mL (≈ 2.63 µM); activity against the nematodes, water screen [6]: activity against the nematodes
N#CN=[N+]([O-])c1cc(Cl)cc2c1OCC=C2 [Example 26]	–	–	2	1	2	2	activity against Pvt (Plasmopara viticola [1]): high activity; Bcp: direct protectant activity against vine grey mould (Botrytis cinerea): 2
CC1(C)C=Cc2cc(F)cc([N+]([O-])=NC#N)c2O1 [Example 29]	–	–	–	–	2	1	–
